{"source": "patent US20130130306A1", "about": "“ZN (II) BASED COLORIMETRIC SENSOR AND PROCESS FOR THE PREPARATION THEREOF” (COUNCIL OF SCIENTIFIC & INDUSTRIAL RESEARCH, priority 2010, published 2013)", "key": {"[1]": {"assay": "UV-vis spectral response and spectrophotometric titration with CTP", "format": "binding", "protocol": "(§1) In order to examine the binding behaviour of the Zn-complex (L.Zn) (Scheme 1, Formula 1A) to various important anions (like ATP, CTP, ADP, AMP, PPi, H2PO4^−, SO4^2−, CH3CO2^−, I^−, Br^−, Cl^− and F^−) the following experiment was conducted. A solution (˜21 mM) for of sodium salts of ATP, CTP, ADP, AMP, PPi, H2PO4^−, SO4^−, CH3CO2^−, I^−, Br^−, Cl^−, and F^− were prepared using respective salt in 10 mM HEPES buffer solutions (pH 7.2) and was stored for use. Further, a solution (44.35 μM) of the compound L.Zn (Scheme 1, Formula 1A) was prepared using doubly-distilled and deionized water and stored. These stored solutions were used on the day of preparation of the solution for experiment. […]\nA solution of L.Zn (Scheme 1, Formula 1A) (8.87 μM) in aqueous medium was treated with excess amount of ˜500 μM of different phosphate anions like H2PO4^−, PPi, AMP, ADP, ATP and CTP. […] Thus L.Zn (Scheme 1, Formula 1A) can bind ATP selectively among various phosphate anions and the color change associated with the binding of ATP can be detected through naked eye (FIG. 2).\nA 1.0 mL of stored solution L.Zn (Scheme 1, Formula 1A) ([L.Zn]=8.95 μM) was put in a test-tube, such that, the final concentration of the L.Zn solution was 1.79 μM to this varying amount of CTP (0.1-4 mL of the stored CTP solution (12.71 mM) was added. Resulting solution was then diluted by addition of a 10 mM HEPES buffer solution (N-(2-hydroxyethyl)-piperazine-N′-2-ethanesulfonic acid) (pH 7.2) maintaining total volume of the resultant aliquot of 5 mL, which was used for spectrophotometric measurements by putting a quartz spectrophotometric cell (3.5 mL capacity). The total spectral change was measured using a spectrophotometer (Shimadzu UV-3101 PC) after appropriate base line correction. […]"}, "[2]": {"assay": "UV-vis spectral response and spectrophotometric titration with ADP", "format": "binding", "protocol": "as §1\nA solution of L.Zn (Scheme 1, Formula 1A) (8.87 μM) in aqueous medium was treated with excess amount of ˜500 μM of different phosphate anions like H2PO4^−, PPi, AMP, ADP, ATP and CTP. […] Thus L.Zn (Scheme 1, Formula 1A) can bind ATP selectively among various phosphate anions and the color change associated with the binding of ATP can be detected through naked eye (FIG. 2). […]"}, "[3]": {"conditions": "L.Zn 8.87 μM in aqueous medium, ~500 μM anion"}, "[4]": {"conditions": "spectrophotometric titration, pH 7.2, 10 mM HEPES, 25° C."}}, "data": [{"smiles": "CN(C)c1ccc(N=Nc2ccc(S(=O)(=O)N3CCCNCCNCCCNCC3)cc2)cc1.O=[N+]([O-])[O-].O=[N+]([O-])[O-].[Zn+2]", "note": "[L.Zn]", "values": [{"measurement": "color change on addition of CTP (naked eye)", "setting": "[1]; [3]", "result": "Slight color change"}, {"measurement": "red shift of absorption on addition of CTP", "setting": "[1]; pH 7.2, L.Zn 8.87 μM, anion 17 mM", "result": 9, "unit": "nm"}, {"measurement": "binding constant for the formation of the complex L.Zn-CTP", "setting": "[1]; [4]", "result": "220 (±+15) M^−1"}, {"measurement": "color change on addition of ADP (naked eye)", "setting": "[2]; [3]", "result": "Slight color change"}, {"measurement": "binding constant for the formation of the complex L.Zn-ADP", "setting": "[2]; [4]", "result": "142 (±15) M^−1"}]}]}
